Among the data in patent publication US20240261417A1, “SOS1 DEGRADING AGENT AND PREPARATION METHOD THEREFOR AND APPLICATION THEREOF” (SHANGHAI LEADINGTAC PHARMACEUTICAL CO. LTD., priority 2021, published 2024) are DC50 and Dmax values, retold here.

The target in this assay is T1, SOS1 protein (Homo sapiens, UniProt Q07889).
T1 sequence (Q07889 1-1333): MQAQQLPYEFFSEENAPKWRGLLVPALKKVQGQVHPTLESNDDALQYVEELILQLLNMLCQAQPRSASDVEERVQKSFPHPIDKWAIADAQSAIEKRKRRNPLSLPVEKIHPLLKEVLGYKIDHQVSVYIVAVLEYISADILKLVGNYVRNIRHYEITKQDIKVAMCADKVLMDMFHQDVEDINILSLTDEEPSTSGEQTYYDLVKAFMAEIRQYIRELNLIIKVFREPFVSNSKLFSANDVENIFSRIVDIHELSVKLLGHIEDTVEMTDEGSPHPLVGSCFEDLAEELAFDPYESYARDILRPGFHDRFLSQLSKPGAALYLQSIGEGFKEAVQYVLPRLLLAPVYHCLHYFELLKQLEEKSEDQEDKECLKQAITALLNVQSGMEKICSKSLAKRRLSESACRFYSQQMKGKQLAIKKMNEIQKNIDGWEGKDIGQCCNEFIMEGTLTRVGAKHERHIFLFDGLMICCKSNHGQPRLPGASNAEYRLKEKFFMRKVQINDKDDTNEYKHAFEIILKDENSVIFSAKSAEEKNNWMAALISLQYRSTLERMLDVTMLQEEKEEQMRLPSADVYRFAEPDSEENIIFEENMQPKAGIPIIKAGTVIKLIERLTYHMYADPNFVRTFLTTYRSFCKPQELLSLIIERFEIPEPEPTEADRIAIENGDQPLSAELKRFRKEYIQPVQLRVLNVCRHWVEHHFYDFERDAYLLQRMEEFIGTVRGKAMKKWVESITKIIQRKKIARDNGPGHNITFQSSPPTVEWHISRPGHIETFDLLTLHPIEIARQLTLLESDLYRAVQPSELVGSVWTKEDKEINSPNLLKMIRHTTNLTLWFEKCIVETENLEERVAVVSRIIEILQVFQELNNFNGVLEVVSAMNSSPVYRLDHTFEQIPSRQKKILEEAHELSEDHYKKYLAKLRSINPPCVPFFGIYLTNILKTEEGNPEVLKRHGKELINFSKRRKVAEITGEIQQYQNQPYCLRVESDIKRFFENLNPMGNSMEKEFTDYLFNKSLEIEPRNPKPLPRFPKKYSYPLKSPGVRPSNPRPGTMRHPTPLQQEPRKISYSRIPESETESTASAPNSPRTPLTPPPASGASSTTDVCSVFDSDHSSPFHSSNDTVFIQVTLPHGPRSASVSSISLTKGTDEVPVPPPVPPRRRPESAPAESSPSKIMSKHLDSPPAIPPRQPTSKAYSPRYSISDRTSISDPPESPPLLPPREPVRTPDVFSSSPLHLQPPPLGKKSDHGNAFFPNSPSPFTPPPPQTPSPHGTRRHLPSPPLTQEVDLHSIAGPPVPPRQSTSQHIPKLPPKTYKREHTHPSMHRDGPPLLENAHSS
Briefly: SOS1 degradation assay (Western blot), A-427 cells. Type of assay: cell-based. The conditions noted are these: 24 h; for DC50: read-out: A427 (G12D) DC50; for Dmax: read-out: A427 (G12D) Dmax. Also on record: host or cells: A-427 (human cancer cell lines). As to the method:
The specific procedures were as follows:
0.95 mL of cells were seeded into each well of a 24-well cell culture plate to achieve a cell density of 5×10^5 cells/well; the cell plate was incubated in an incubator at 37° C. with 5% CO2 overnight. Then 50 μL of the compound solution after dilution was added to each of the wells with the corresponding cells, so that the final concentration of the compound was in a range of 0.03-3000 nM. […] After dosing, the cell plate was incubated in an incubator at 37° C. with 5% CO2 for 24 h. […] After the plate was left to stand on ice for 30 min, the protein lysate in each well was transferred to a 1.5 mL centrifuge tube and centrifuged at 15000 g for 20 min at 4° C. The cell lysate supernatant after centrifugation was cryopreserved at −80° C. for testing and was used for determining the degradation level of the SOS1 protein by a WB method. The concentration of total protein in the cell lysate supernatant was determined using the BCA Protein Quantification Kit (Tiangen, PA115-02).
The concentration of total protein in the cell lysate was determined by BCA. The total protein was adjusted to 0.5 μg/μL with PBS and 5× SDS-PAGE protein loading buffer (Beyotime, P0015L), incubated in a water bath at 100° C. for 15 min, incubated in an ice bath on ice for 5 min, centrifuged at 14000 g for 1 min at 4° C., and mixed well as a loading sample for WB. Protein electrophoresis was performed on a precast gel (KeyGEN, KGMGO10W15) with a loading volume of 10 μL (total protein: 5 μg) using a Tris-MOPS-SDS running solution (Adamas, P1598253) at a constant voltage of 120 V for 55 min. After the electrophoresis, the protein on the gel strip was transferred to a PVDF membrane at a constant current of 250 mA for 65 min. After the membrane transfer, the membrane was incubated in 1× QuickBlock blocking buffer (Beyotime, P0235) for 30 min at room temperature. […] The protein map was subjected to gray value analysis by the chemiluminescence imaging system from Clinx. […] Then the degradation rate was calculated by comparing the gray correction value with the gray correction value of the control group. Then nonlinear curve fitting was performed by GraphPad Prism 8 in the logarithmic concentration-inhibition rate to obtain the DC50 and Dmax values of the compounds.
In general terms: A western blot detects proteins with antibodies after separation by electrophoresis.

A value given as a limit tells only on which side of the number the result lay.

As a reminder, the DC50 is the midpoint of the concentration-degradation curve. For orientation: Dmax means the greatest extent of degradation seen. For the molecule `COc1cc2nc(C)nc(N[C@H](C)c3cc(N)cc(C(F)(F)F)c3)c2cc1[C@H]1CC[C@H](C(=O)N2CCN(CCOCC3CCN(C(=O)c4ccc(Cl)c(N5CCC(=O)NC5=O)c4)CC3)CC2)CC1` [Example 33, 1-(5-(4-((2-(4-((1R,4R)-4-(4-(((R)-1-(3-amino-5-(trifluoromethyl)phenyl)ethyl)amino)-7-methoxy-2-methylquinazolin-6-yl)cyclohexane-1-carbonyl)piperazin-1-yl)ethoxy)methyl)piperidine-1-carbonyl)-2-chlorophenyl)dihydropyrimidine-2,4(1H,3H)-dione], the DC50 was less than 50 nM and the Dmax was 80 to 100%.

For the molecule `COc1cc2nc(C)nc(N[C@H](C)c3cc(N)cc(C(F)(F)F)c3)c2cc1[C@H]1CC[C@H](C(=O)N2CCN(CC3CCC4(CC3)CCN(C(=O)c3ccc(Cl)c(N5CCC(=O)NC5=O)c3)CC4)CC2)CC1` [Example 2, 1-(5-(9-((4-((1R,4R)-4-(4-(((R)-1-(3-amino-5-(trifluoromethyl)phenyl)ethyl)amino)-7-methoxy-2-methylquinazolin-6-yl)cyclohexane-1-carbonyl)piperazin-1-yl)methyl)-3-azaspiro[5.5]undecane-3-carbonyl)-2-chlorophenyl)dihydropyrimidine-2,4(1H,3H)-dione], the DC50 is less than 50 nM and the greatest degradation seen (Dmax) is 80 to 100%.

Regarding `COc1cc2nc(C)nc(N[C@H](C)c3cc(N)cc(C(F)(F)F)c3)c2cc1[C@H]1CC[C@H](C(=O)N2CCN(CCC3CCC4(CC3)CCN(C(=O)c3ccc(Cl)c(N5CCC(=O)NC5=O)c3)CC4)CC2)CC1` [Example 1, 1-(5-(9-(2-(4-((1R,4R)-4-(4-(((R)-1-(3-amino-5-(trifluoromethyl)phenyl)ethyl)amino)-7-methoxy-2-methylquinazolin-6-yl)cyclohexane-1-carbonyl)piperazin-1-yl)ethyl)-3-azaspiro[5.5]undecane-3-carbonyl)-2-chlorophenyl)dihydropyrimidine-2,4(1H,3H)-dione], the DC50 is less than 50 nM and the Dmax lay within 80 to 100%.

With `COc1cc2nc(C)nc(N[C@H](C)c3cc(N)cc(C(F)(F)F)c3)c2cc1[C@H]1CC[C@H](C(=O)N2CCC(CCOCC3CCN(C(=O)c4ccc(Cl)c(N5CCC(=O)NC5=O)c4)CC3)CC2)CC1` [Example 19, 1-(5-(4-((2-(1-((1R,4R)-4-(4-(((R)-1-(3-amino-5-(trifluoromethyl)phenyl)ethyl)amino)-7-methoxy-2-methylquinazolin-6-yl)cyclohexane-1-carbonyl)piperidin-4-yl)ethoxy)methyl)piperidine-1-carbonyl)-2-chlorophenyl)dihydropyrimidine-2,4(1H,3H)-dione], the half-maximal degradation concentration (DC50) was less than 50 nM and the Dmax lay within 50 to 80%.

On to `COc1cc2nc(C)nc(N[C@H](C)c3cccc4c3CCS4(=O)=O)c2cc1[C@H]1CC[C@H](C(=O)N2CCN(CC3CCC4(CC3)CCN(C(=O)c3ccc(Cl)c(N5CCC(=O)NC5=O)c3)CC4)CC2)CC1` [Example 10, 1-(2-chloro-5-(9-((4-((1R,4R)-4-(4-(((R)-1-(1,1-dioxo-2,3-dihydrobenzo[b]thiophen-4-yl)ethyl)amino)-7-methoxy-2-methylquinazolin-6-yl)cyclohexane-1-carbonyl)piperazin-1-yl)methyl)-3-azaspiro[5.5]undecane-3-carbonyl)phenyl)dihydropyrimidine-2,4(1H,3H)-dione], for which the DC50 is less than 50 nM and the maximal degradation (Dmax) is 80 to 100%.

On to `CNCc1ccccc1-c1csc([C@@H](C)Nc2nc(C)nc3cc(OC)c([C@H]4CC[C@H](C(=O)N5CCN(CC6CCC7(CC6)CCN(C(=O)c6ccc(OC)c(N8CCC(=O)NC8=O)c6)CC7)CC5)CC4)cc23)c1` [Example 73, 1-(2-methoxy-5-(9-((4-((1R,4R)-4-(7-methoxy-2-methyl-4-(((R)-1-(4-(2-((methylamino)methyl)phenyl)thien-2-yl)ethyl)amino)quinazolin-6-yl)cyclohexane-1-carbonyl)piperazin-1-yl)methyl)-3-azaspiro[5.5]undecane-3-carbonyl)phenyl)dihydropyrimidine-2,4(1H,3H)-dione], for which the DC50 is less than 50 nM and the Dmax lay in the range of 80 to 100%.
